± gives the standard deviation.
Columns and labels:
[1] = tested on: Toxoplasma gondii RH tachyzoites; assay: % growth inhibition vs DMSO (48 h luciferase); higher = more inhibition; settings: 10 µM
[2] = tested on: Plasmodium falciparum 3D7; assay: EC50 growth inhibition (60 h, SYBR Green); settings: stage: ring-stage start
[3] = tested on: Toxoplasma gondii RH tachyzoites; assay: plaque count per well; higher = less inhibition; extreme values may be limits of the assay; settings: 10 µM; 8-10 days
Experimental: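 T. gondii RH tachyzoites expressing firefly luciferase were grown in HFF monolayers for 48 h with compound. % growth inhibition at 10 µM and EC50 (2-fold dilutions from 10 µM) were read by luminescence relative to 1% DMSO; EC50 listed as 10 (not determined, <80% inhibition) is left out. Plaque assays: 50 tachyzoites per well with 10 µM compound for 8-10 days, giving plaque count and area by crystal violet/ImageJ. Egress: median time to egress after 1 µM A23187 ionophore following 24 h of 10 µM compound (DMSO ~1.8 min; >10 = no egress within 10 min).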

[4] = tested on: Plasmodium falciparum 3D7; assay: % inhibition of schizont-to-ring transition vs DMSO; higher = more inhibition
Method in brief: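 Tightly synchronised P. falciparum schizonts (about 40–42 hours post-invasion, 1% parasitemia, 2.5% hematocrit, AlbuMAX-supplemented RPMI) were exposed to compound at 1, 3 or 10 µM, with vehicle and positive controls. Cells were glutaraldehyde-fixed, Triton-permeabilised, stained with Hoechst 33342 and counted by flow cytometry (at least 100,000 events). Schizont-to-ring transition inhibition is new ring formation relative to vehicle controls, averaged over three experiments.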
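Wherever % growth inhibition vs DMSO (48 h luciferase) is given: tested in triplicate wells of 96-well plates on confluent HFF monolayers, with 1% DMSO wells as negative control in four replicates.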

Row | SMILES | % growth inhibition [1] | EC50 growth inhibition [2] | plaque count per well [3] | % inhibition of schizont-to-ring transition ([4]; 1 µM) | % inhibition of schizont-to-ring transition ([4]; 3 µM) | % inhibition of schizont-to-ring transition ([4]; 10 µM)
1 | OC(CNC1CCCC1)Cn1c2ccccc2c2ccccc21 (stereo unspecified) | 15.9 ± 6.6% | 723 nM | 0 | 22.3% | 40.1% | 63.4%
2 | O=C(Nc1ccc(CN2CCOCC2)cc1)c1ccc(-c2ccc(Br)cc2)o1 | 8.26 ± 14% | 1420 nM | 30 | 40.3% | 45.9% | 59.2%
3 | CCOc1cc(CNC(C)C(O)c2ccccc2)cc(Cl)c1OCC (stereo unspecified) | 15 ± 24% | 1060 nM | 0 | 2% | 17.2% | 44.2%
4 | COc1ccc2c(c1OC)C(=O)N1c3ccccc3N=C(c3ccc(C)cc3)CC21 (stereo unspecified) | < 0% | 6080 nM | 32 | 20.9% | 71.5% | 80.7%
5 | CCc1ccc(Nc2cc(C)nc3nc(C)nn23)cc1 | < 0% | 2280 nM | 27 | 7.01% | 30% | 50.7%
6 | COc1ccccc1CNC(=O)C1c2ccccc2C(=O)N(CC(C)C)C1c1cccs1 (stereo unspecified) | < 0% | 926 nM | 24 | 34.5% | 45% | 68.1%
7 | CN(C)c1ccc(N2C(N)=NC(N)=NC2(C)C)cc1 | < 0% | 5680 nM | 23 | 7.46% | 13.2% | 46.8%
8 | CCOc1ccc(N2C(N)=NC(N)=NC2(C)C)cc1 | < 0% | 9760 nM | 28 | 5.22% | 7.7% | 16%
9 | COc1ccc(-c2cc3c(nn2)-c2ccccc2C3=O)cc1 | < 0% | 781 nM | 29 | 14.8% | 34.7% | 50.6%
10 | CCCN(CCC)CC(O)COc1ccccc1C(=O)Nc1ccccc1 (stereo unspecified) | < 0% | 420 nM | 25 | 33% | 65.6% | 73.5%
11 | CC(C)c1ccc(CNCC(O)c2ccccc2)cc1 (stereo unspecified) | 10.5 ± 1.3% | 2650 nM | 0 | 7.33% | 20.6% | 59.6%
12 | CN1C=C(c2ccc3ccccc3n2)C(c2c[nH]c3ccccc23)c2ccccc21 (stereo unspecified) | < 0% | 638 nM | 0 | 26.7% | 37.7% | 70.6%
13 | Cc1ccc(-c2cc3nc4c(c(O)n3n2)CCCC4)cc1 | < 0% | 4270 nM | 0 | 17.7% | 36.1% | 49.3%
14 | CN1CCN(c2nc(Nc3ccc(O)cc3)nc3ccccc23)CC1 | < 0% | 1260 nM | 29 | 34.7% | 33.4% | 52.2%
15 | CN1c2ccccc2N(C)C1c1ccc2c(c1)OCO2 | < 0% | 9760 nM | 23 | < 0% | < 0% | 18.3%
16 | CC1=C(CC(=O)c2cccc([N+](=O)[O-])c2)C(=O)c2ccccc2C1=O | < 0% | 9850 nM | 0 | 32.3% | 55.7% | 59.9%
